The results in this text go back to article doi:10.1101/2023.05.15.540887, “Comparative analysis of drug-like EP300/CREBBP acetyltransferase inhibitors” (bioRxiv, 2023).

Where two headings read alike, the source gives them in different places.

In one assay the test system is MDA-MB-468. The experiment in a line: NCI-60 growth inhibition (sulforhodamine B). The note with it: Homo sapiens.
For another assay, the system named is NCI-H460. The experiment in a line: NCI-60 growth inhibition (sulforhodamine B). The class given is cell-based, human.

In the case of `C[C@H](CN[C@@H](C(=O)Nc1ccc(-c2cnn(C)c2)cn1)c1ccccc1)c1ccc(C#N)cc1` [CPI-1612], the GI50 with MDA-MB-468 (MDA-MB-468, read-out: GI50 NLOGVALUE) is under 0.01 µM; in the assay on NCI-H460 (Homo sapiens, NCI-H460, read-out: GI50 AVGDATA (converted)), 14.5 µM; in the assay on NCI-H460 (Homo sapiens, NCI-H460 (Non-Small Cell Lung Cancer), negative log of Molar conc., LCONC -8, read-out: GI50 NLOGVALUE (converted)), 14.1 µM. Also, the IC50 with MDA-MB-468 (MDA-MB-468, read-out: IC50 NLOGVALUE) is over 100 µM; with NCI-H460 (Homo sapiens, NCI-H460 (Non-Small Cell Lung Cancer), negative log of Molar conc., LCONC -8, read-out: IC50 NLOGVALUE (converted)), 20.9 µM. Moreover, in the assay on NCI-H460 (Homo sapiens, NCI-H460 (Non-Small Cell Lung Cancer), negative log of Molar conc., LCONC -8, read-out: LC50 NLOGVALUE), the CC50 was over 100 µM. Moreover, the “TGI NLOGVALUE” in the assay with NCI-H460 (NCI-H460 (Non-Small Cell Lung Cancer), negative log of Molar conc., LCONC -8) came to 4.

By GI50 is commonly meant the concentration that inhibits growth by half. In general, IC50 refers to the point on the concentration scale where inhibition reaches its midpoint.
